Several values for one entry are separate records, joined by “and”; a condition that tells them apart may be missing. Equal entries are not always repeated.
Legend:
antiovalbumin antibodies = assay: Rate of antiovalbumin antibodies in guinea pigs three weeks after injection of ovalbumin in FIA emulsion; type: in vivo, Hartley guinea pigs
Procedure: In the two series of tests the results of which are indicated hereafter, the influence of the active principles of the drugs according to the invention on the antiovalbumin antibodies rate was studied under the following conditions.
(§1) Female Hartley guinea pigs of 300-350 g. were given in the plantar pad of each of the two rear paws an emulsion composed of equal parts of incomplete Freund's adjuvant and a physiological solution containing ovalbumin (5 mg/guinea pig) and the preparations to be tested. The Freund's incomplete adjuvant (FIA), the Freund's complete adjuvant (FCA) marketed by the DIFCO Company and N-acetylmuramyl-L-alanyl-D-isoglutamine were used as controls.
The rate of antibodies with respect to ovalbumin was determined three weeks later after the injection in the conditions which were indicated in the French patent Nr 71 41610 of Nov. 19, 1971; it is expressed in μg of the antigen-antibody precipitate per ml of serum at the point of equivalence.

[1] = tested on: delayed hypersensivity to ovalbumin; assay: Delayed hypersensitivity to ovalbumin (cutaneous reaction) in guinea pigs; type: in vivo, Hartley guinea pigs; details: 4 weeks after injection, 48 hours after 50 μg ovalbumine/animal sub-cutaneous
Procedure: as §1
In a second series of tests, the delayed hypersensivity to ovalbumin which produces a cutaneous reaction was measured four weeks after the injection; it is expressed by the diameter in millimetres of the erythema (E), of the induration (I) or of the necrosis (N), 48 hours after the sub-cutaneous injection of 50 micrograms of ovalbumin.

[2] = Table I, first series, 25 μg/animal + FIA, guinea pigs, 3 weeks after injection
[3] = Table II, second series, 25 μg/animal
[4] = Table II, second series, 100 μg/animal

| SMILES | Antiovalbumin antibodies rates compared with animals which received Freund's incomplete adjuvant only (in words) (antiovalbumin antibodies; Table I) | Rate of antiovalbumin antibodies (individual animals) (antiovalbumin antibodies; [2]) | Rate of antiovalbumin antibodies, mean values (antiovalbumin antibodies; [2]) [μg proteins / ml serum] | Rate of antiovalbumin antibodies (individual animals) (antiovalbumin antibodies; [3]) | Rate of antiovalbumin antibodies, mean values (antiovalbumin antibodies; [3]) [μg proteins/ ml serum] | Rate of antiovalbumin antibodies (individual animals) (antiovalbumin antibodies; [4]) | Rate of antiovalbumin antibodies, mean values (antiovalbumin antibodies; [4]) [μg proteins/ ml serum] | Inhibition of the adjuvant action of Mur-N-Ac-L-Ala-D-Glu-α-NH2 when administered simultaneously (in words) (antiovalbumin antibodies; Table II, tests 5 and 6 versus test 3) | Delayed hypersensibility, cutaneous reaction (type letter not given) ([1]; 25 μg/animal) [millimetres] | Delayed hypersensibility, diameter of the induration (I) ([1]; 25 μg/animal) [millimetres] | Delayed hypersensibility, cutaneous reaction (type letter not given) ([1]; 100 μg/animal) [millimetres] | Delayed hypersensibility, diameter of the erythema (E) ([1]; 100 μg/animal) [millimetres] |
| --- | --- | --- | --- | --- | --- | --- | --- | --- | --- | --- | --- | --- |
| CC(=O)NC1C(O)OC(CO)C(O)C1OC(C)C(=O)NC(C)C(=O)NC(CCC(=O)O)C(N)=O [Mur-N-Ac-D-Ala-D-Glu-,α-NH2, 2-(2-acetamido-2-deoxy-3-O-D-glucopyranose)-D-propionyl-D-alanyl-D-isoglutamine] | much lower | 200 μg proteins / ml serum and 800 μg proteins / ml serum and 900 μg proteins / ml serum and 1300 μg proteins / ml serum and 1900 μg proteins / ml serum and 1500 μg proteins / ml serum | 1068 | 1720 μg proteins/ ml serum and 660 μg proteins/ ml serum and 3600 μg proteins/ ml serum and 1800 μg proteins/ ml serum and 1760 μg proteins/ ml serum | 1890 | 950 μg proteins/ ml serum and 1000 μg proteins/ ml serum and 1200 μg proteins/ ml serum | 1050 | strongly inhibits the adjuvant action | 0 | 12 | 0 | 5 |
| CC(=O)N[C@H]1C(O)O[C@H](CO)[C@@H](O)[C@@H]1O[C@H](C)C(=O)N[C@@H](C)C(=O)N[C@@H](CCC(=O)O)C(N)=O (stereo partly drawn) [Mur-N-Ac-L-Ala-L-Glu-,α-NH2, 2-(2-acetamido-2-deoxy-3-D-glucopyranosyl)-D-propionyl-L-Ala-L-Glu-α-NH2] | much lower | 1140 μg proteins / ml serum and 3400 μg proteins / ml serum and 4200 μg proteins / ml serum and 1700 μg proteins / ml serum and 800 μg proteins / ml serum and 700 μg proteins / ml serum and 2800 μg proteins / ml serum | 2104 | – | – | – | – | – | – | – | – | – |
